{"source": "paper PMC10350922", "about": "“Allosteric Inhibitors of Macrophage Migration Inhibitory Factor (MIF) Interfere with Apoptosis-Inducing Factor (AIF) Co-Localization to Prevent Parthanatos” (Journal of Medicinal Chemistry, 2023)", "key": {"MIF [1]": {"biological_target": "T1, MIF (Homo sapiens, UniProt P14174)", "T1 construct": "made in house; host or cells: Escherichia coli BL21, pET-20b(p) plasmid", "T1 sequence (P14174 2-115 limits assumed)": "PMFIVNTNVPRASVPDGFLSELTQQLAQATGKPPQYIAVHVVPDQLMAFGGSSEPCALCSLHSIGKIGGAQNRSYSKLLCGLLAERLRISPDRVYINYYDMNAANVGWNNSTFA", "experiment": "MIF tautomerase activity assay (PP substrate, UV absorbance at 300 nm)", "assay_type": "biochemical", "experimental": "Recombinant human MIF with a C-terminal His-tag was expressed and purified following methods published previously.[47] The inhibitory potency for MIF tautomerase activity of the 1-phenyl-1H-1,2,3-triazole-4-carboxamides was measured after pre-incubation with MIF. The MIF-catalyzed PP tautomerization was measured by the corresponding change in UV absorbance over the first 3 min of the reaction.[48] Initial screening of the inhibitory potency was performed at 10 μM inhibitor concentration.\nInhibition of the tautomerase activity and kinetics of MIF was measured using […] (PP) as a substrate. A stock solution was prepared by mixing PP in 50 mM ammonium acetate buffer and adjusted to pH 6.0 using 1.0 M NaOH to provide a concentration of 20 mM. This solution was incubated overnight at 37 °C to allow equilibration of the keto and enol forms and then stored at 4 °C. For the assay, MIF stock solution (10 μL, 70 μM) was diluted in 20 mL of the boric acid buffer (435 mM H3BO3, 1 mM EDTA, pH 6.2) to provide 35 nM solution. The enzyme activity was determined by premixing 192 μL of the MIF dilution with 8 μL of the inhibitors dissolved in DMSO (1 mM). This mixture was preincubated for 10 min. Next, 50 μL of the mixture was mixed with 50 μL of 2 mM PP solution in ammonium acetate buffer. Subsequently, MIF tautomerase activity was monitored by the formation of the borate–enol complex, which was measured by the increase in UV absorbance at 300 nm. The increase in UV absorbance was measured over the first 10 min of incubation using a BioTek Synergy H1 Hybrid plate reader. MIF tautomerase activity in the presence of blank DMSO was set to 100% enzyme activity. […] Data from the first 3 min were used to calculate the initial velocities. All of the graphs were prepared in GraphPad Prism.\nFor the IC50 measurements, 1 mM solutions of the compounds were double-diluted 10 times in DMSO and subsequently, the MIF tautomerase activity was determined by premixing 190 μL of the MIF dilution with 10 μL of the inhibitors. This mixture was preincubated for 10 min and mixed with the 2 mM PP solution as described above."}, "MIF [2]": {"biological_target": "T1, MIF", "experiment": "Microscale thermophoresis (MST) binding assay", "details": "25 °C, RED-tris-NTA labeled MIF", "experimental": "(§1) A microscale thermophoresis (MST) assay was performed to confirm the binding of 6y to MIF. […] Overall, we concluded that 6y binds reversibly to an allosteric binding site that affects MIF tautomerase activity.\nMST experiments were performed on a Monolith NT.115 system (NanoTemper Technologies) using 100% LED and 60% IR-laser power. Laser on and off times were set at 30 and 5 s, respectively. A 100 nM dye solution RED-tris-NTA was prepared by mixing 2 μL of the dye (5 μM in DMSO) and 98 μL of PBS-T. The protein concentration was adjusted to 200 nM, and 100 μL of this solution was added to the tube with dye and incubated at rt for 30 min. Meanwhile, a twofold dilution series of compound 6y was prepared in PBS-T containing 5% DMSO. Subsequently, 10 μL of labeled MIF was mixed with 10 μL of the samples with 16 different concentrations of 6y ranging from 2000 to 0.06 μM. The samples were centrifuged for 10 min at rt and the supernatant was transferred into fresh tubes. After that, the standard treated capillaries (K002) were filled with the solutions and the MST curves were measured at 25 °C."}, "HeLa cells [3]": {"tested_on": "HeLa cells", "experiment": "Cell viability (MTS) assay, MNNG-induced parthanatos", "assay_type": "cell-based", "details": "3 h pretreatment, MNNG 50 μM 15 min, 24 h, MTS, read-out: EC50, protection from MNNG-induced parthanatos"}, "HeLa cells [4]": {"tested_on": "HeLa cells", "experiment": "Cell death determination by flow cytometry (Hoechst 33342 / PI)", "assay_type": "cell-based", "details": "MNNG 50 μM 15 min, with or without 100 μM inhibitor pretreatment, 24 h"}, "HeLa cells [5]": {"tested_on": "HeLa cells", "assay_type": "cell-based"}, "MIF/AIF binding": {"biological_target": "T2, MIF/AIF binding (Homo sapiens, UniProt P14174)", "T2 construct": "host or cells: Escherichia coli BL21 (MIF)", "T2 sequence (P14174 2-115 limits assumed)": "T1 sequence (P14174 2-115 limits assumed)", "experiment": "MIF/AIF binding ELISA", "details": "MIF-coated plate, his-tagged AIF 4 μM", "experimental": "Next, we investigated the mechanism by which 6y protects genome DNA. Considering that […] is a crucial step in parthanatos, we tested if 6y interferes with MIF/AIF binding in vitro. […] Under control conditions, MIF and AIF are mainly located in the cytosol. […] Human recombinant untagged MIF was diluted in the binding buffer (Tris-HCl 100 mM, 5 mM MgCl2, 150 mM NaCl, pH 8.5) to a final concentration of 250 nM. 100 μL of MIF solution was used to coat each well of a high-binding 96-well plate overnight at 4 °C. […] After 2 h incubation, the plate was washed three times with washing buffer and incubated with anti-poly-Histidine–peroxidase antibody (Sigma, Amsterdam, the Netherlands) for 30 min. After washing, 100 μL of mixed HRP substrate reagent (R&D Systems, Minneapolis) was added, and the colorizing reaction was stopped by adding 100 μL of 1N sulfuric acid. The absorbance at 450 nm was determined with the correction at […] via a Synergy H1 plate reader."}, "[6]": {"experiment": "Solubility observation in the MST experiment", "assay_type": "physicochemical", "details": "at concentrations higher than 1000 μM, PBS-T with 5% DMSO", "experimental": "as §1"}}, "note": "Where two headings read alike, the source gives them in different places.", "data": [{"smiles": "O=C(Nc1ccccc1)c1ccc(-n2cc(C(=O)NCc3cccs3)nn2)cc1", "note": "[Compound 6y, 1-(4-(Phenylcarbamoyl)phenyl)-N-(thiophen-2-ylmethyl)-1H-1,2,3-triazole-4-carboxamide]", "values": [{"measurement": "remaining activity at 10 µM", "setting": "MIF [1]; 10 μM inhibitor, activity without inhibitor set to 100%, mean, n = 3", "result": 12, "unit": "%"}, {"measurement": "IC50", "setting": "MIF [1]; PP as substrate, 10 min preincubation, read-out: IC50, inhibition of MIF tautomerase activity", "result": "1.7 ± 0.1", "unit": "µM"}, {"measurement": "Kd", "setting": "MIF [2]", "result": 95, "unit": "µM"}, {"measurement": "EC50", "setting": "HeLa cells [3]", "result": "~8", "unit": "µM"}, {"measurement": "EC50", "setting": "HeLa cells [3]; Homo sapiens", "result": "7.7 ± 2.1", "unit": "µM"}, {"measurement": "Cells stained by PI", "setting": "HeLa cells [4]", "result": 20, "unit": "%"}, {"measurement": "MNNG-induced DNA damage (comet assay)", "setting": "HeLa cells [5]; HeLa, 50 μM 6y 2 h, then 10 μM MNNG 2 h, alkaline conditions", "result": "inhibited"}, {"measurement": "Effect of compound alone on genome integrity (comet assay)", "setting": "HeLa cells [5]; HeLa, without MNNG", "result": "did not affect genome integrity"}, {"measurement": "Genomic DNA fragmentation (gel electrophoresis)", "setting": "HeLa cells [5]; pretreatment, dose and time-dependent", "result": "protective effect"}, {"measurement": "IC50", "setting": "MIF/AIF binding", "result": 12.3, "unit": "µM"}, {"measurement": "Solubility", "setting": "[6]", "result": "limited solubility"}]}]}
